Test results: patent publication US8575168B2, “Compounds and compositions as modulators of GPR119 activity” (IRM LLC, priority 2009, dated 2013)

These molecules were tested against T1, human GPR119 (Homo sapiens, UniProt Q8TDV5) (assay: Cyclic AMP Assay in Stable Cell Line (HTRF)). Conditions: Flp-In-CHO-hGPR119 cells, intracellular cAMP, 30 minutes at 37° C., 1 mM IBMX.
T1 construct: expressed in transfected cells
T1 sequence (Q8TDV5 1-335): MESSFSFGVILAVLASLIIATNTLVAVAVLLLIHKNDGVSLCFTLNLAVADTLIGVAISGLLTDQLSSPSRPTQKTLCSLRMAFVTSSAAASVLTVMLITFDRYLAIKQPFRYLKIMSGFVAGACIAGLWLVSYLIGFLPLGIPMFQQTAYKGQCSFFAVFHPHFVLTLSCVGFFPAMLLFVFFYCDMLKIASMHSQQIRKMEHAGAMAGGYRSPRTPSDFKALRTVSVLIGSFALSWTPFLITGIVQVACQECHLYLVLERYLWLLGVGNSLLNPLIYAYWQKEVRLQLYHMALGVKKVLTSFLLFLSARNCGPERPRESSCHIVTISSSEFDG
Type: cell-based
Experimental: Flp-In-CHO cells (Invitrogen, Cat. #R758-07) are maintained in Ham's F12 medium supplemented with 10% fetal bovine serum, 1% antibiotic mixture and 2 mM L-glutamine. The cells are transfected with a DNA mixture containing human GPR119 in pcDNA5/FRT vector and the pOG44 vector (1:9) using Fugene6 (Roche), according to the manufacturer's instruction. After 48 hours, the medium is changed to medium supplemented with 400 μg/ml hygromycin B to initiate the selection of stably transfected cells.
To test the activity of compounds of the invention, Flp-In-CHO-hGPR119 cells are harvested and resuspended in DMEM plus 3% lipid-depleted fetal bovine serum. Forth μl of cells are plated in 384 well plates at a density of 15,000 cells/well. IBMX (3-isobutyl-1-methyl-xanthine) is added to the cells to a final concentration of 1 mM, followed by the addition of 500 nl of the compound to be tested. The cells are incubated at 37° C. for 30 minutes. Equal volume (20 μl) of the HTRF reagents, anti-cAMP-Cryptate and cAMP-XL665, are added to the cells. The plates are incubated at room temperature for 1 hour and read on a HTRF reader according to the manufacturer's instruction.
Molecule `CCCS(=O)(=O)N1CCN(c2ccc(OC3CN(Cc4ccc(C(F)(F)F)cc4)C3)cn2)C(=O)C1` [Example A20] has an EC50 of 9 nM. `CS(=O)(=O)N1CCC(c2cc(F)c(OC3CN(Cc4ncc(C(F)(F)F)cc4Cl)C3)c(F)c2)CC1` [Example A26] showed an EC50 of 330 nM. Work on `CC(C)(C)c1noc(CN2CC(Oc3c(F)cc(C4CCN(S(C)(=O)=O)CC4)cc3F)C2)n1` [Example B8] yielded an EC50 of 286 nM. `CC(C)(C)OC(=O)N1CCC(S(=O)(=O)N2CCC(c3cc(F)c(OC4CN(Cc5ccc(C(F)(F)F)cc5)C4)c(F)c3)CC2)C1` (centres unmarked) [Example A39] was tested, and the EC50 was 214 nM. `CS(=O)(=O)N1CCN(c2ccc(OC3CN(Cc4ccc(C(F)(F)F)cc4)C3)c(F)c2)CC1` [Example A43] gave an EC50 of 115 nM. With `CS(=O)(=O)N1CCC(c2cc(F)c(OC3CCCN(Cc4ccc(C(F)(F)F)cc4)CC3)c(F)c2)CC1` (centres unmarked) [Example C2] the EC50 was 125 nM. Molecule `CS(=O)(=O)N1CCC(c2cc(F)c(OC3CCN(Cc4csc(C(F)(F)F)n4)CC3)c(F)c2)CC1` [Example B18] has an EC50 of 52 nM. With `O=S(=O)(C1CCNCC1)N1CCC(c2cc(F)c(OC3CN(Cc4ccc(C(F)(F)F)cc4)C3)c(F)c2)CC1` [Example A38] the EC50 was 458 nM. For `CC(C)c1nc(CN2CC(Oc3c(F)cc(C4CCN(S(C)(=O)=O)CC4)cc3F)C2)no1` [Example B11], the EC50 was 397 nM. `CS(=O)(=O)N1CCC(c2cc(F)c(OC3CCN(Cc4ccc(C(F)(F)F)cc4)CC3)c(F)c2)CC1` [Example A5] was tested, and the EC50 was 9 nM. For `CS(=O)(=O)N1CCN(c2cc(F)c(OC3CN(Cc4ccc(C(F)(F)F)cc4)C3)c(F)c2)CC1` [Example A32], the EC50 was 145 nM. `CC(c1nc(C(F)(F)F)no1)N1CCC(Oc2c(F)cc(C3CCN(S(C)(=O)=O)CC3)cc2F)CC1` (centres unmarked) [Example B30] gave an EC50 of 78 nM. Molecule `Cn1nc(C(F)(F)F)nc1CN1CCC(Oc2c(F)cc(C3CCN(S(C)(=O)=O)CC3)cc2F)CC1` [Example B20] has an EC50 of 208 nM. `CS(=O)(=O)N1CCC(c2cc(F)c(OC3CN(Cc4nc(C(F)(F)F)cs4)C3)c(F)c2)CC1` [Example B17] was tested, and the EC50 was 74 nM. Work on `CC(F)(F)c1noc(CN2CCC(Oc3c(F)cc(C4CCN(S(C)(=O)=O)CC4)cc3F)CC2)n1` [Example B3, 5-((4-(2,6-difluoro-4-(1-(methylsulfonyl)piperidin-4-yl)phenoxy)piperidin-1-yl)methyl)-3-(1,1-difluoroethyl)-1,2,4-oxadiazole] yielded an EC50 of 16 nM. `CC(C)c1ccc(CN2CC(Oc3cnc(N4CCN(S(C)(=O)=O)CC4)cn3)C2)cc1` [Example A11] showed an EC50 of 22 nM. Molecule `CS(=O)(=O)N1CCC(c2cc(F)c(OC3CN(Cc4csc(C(F)(F)F)n4)C3)c(F)c2)CC1` [Example B19] has an EC50 of 448 nM. Work on `Cn1nc(C(F)(F)F)cc1CN1CCC(Oc2c(F)cc(C3CCN(S(C)(=O)=O)CC3)cc2F)CC1` [Example B14] yielded an EC50 of 70 nM. `CS(=O)(=O)N1CCN(c2ccc(OC3CN(Cc4ccc(C(F)(F)F)cc4)C3)cn2)C(=O)C1` [Example A17] gave an EC50 of 26 nM. `CS(=O)(=O)N1CCC(c2cc(F)c(OC3CN(Cc4nc(C5CC5)no4)C3)c(F)c2)CC1` [Example B10] gave an EC50 of 131 nM. In the case of `CS(=O)(=O)N1CCC(c2cc(F)c(OC3CN(Cc4ncc(C(F)(F)F)cn4)C3)c(F)c2)CC1` [Example A27], the EC50 is reported as 764 nM. With `CS(=O)(=O)N1CCC(c2cc(F)c(OC3CCN(Cc4ccc(C(F)(F)F)nc4)CC3)c(F)c2)CC1` [Example A44] the EC50 was 38 nM. `CS(=O)(=O)N1CCN(c2cnc(OC3CN(Cc4ccc(OC(F)(F)F)cc4)C3)cn2)C(=O)C1` [Example A4, 4-(methylsulfonyl)-1-(5-(1-(4-(trifluoromethoxy)benzyl)azetidin-3-yloxy)pyrazin-2-yl)piperazin-2-one] gave an EC50 of 12 nM.
